According to patent US10301286B2, “Piperazine derivative” (Astellas Pharma Inc., priority 2015, dated 2019):
Counter-ions that a name gives are not always drawn.

How the values were obtained:
Male Wistar rats = test: Action on rat urethral pressure (phenylephrine-induced increase); format: in vivo; conditions: anesthetized rats, intravenous, dose giving 40% inhibition of phenylephrine-induced urethral pressure ΔAUC, read-out: ID40
Experimental: The present Test Example was carried out by partially modifying the technique reported as a testing system for evaluating an urethral resistance-reducing action (European Journal of Pharmacology, 679, 127-131 (2012)). Male Wistar rats (Charles River Laboratories Japan, Inc.) were anesthetized with urethane (1.2 g/kg ip), and placed in a supine position. The lower abdominal portion was midline-incised, and thus, the bladder was exposed. The bladder apex was incised, a microchip pressure transducer catheter (3.5 Fr, Millar) was inserted into the inside of the urethra, and then placed therein. In addition, a cannula for administration of a drug was placed into the femoral vein. After stabilization of the urethral pressure, phenylephrine hydrochloride (Sigma-Aldrich, 30 μg/kg) was administered intravenously to induce an increase in the urethral pressure. At an interval of about 30 minutes, this operation was repeated twice or more to confirm the stability of the reaction of a phenylephrine hydrochloride-induced increase in the urethral pressure. Thereafter, a test compound (dissolved in 20% dimethyl acetamide, 10% Cremophor (registered trademark) and 70% physiological saline) was intravenously administered, and then 5 minutes later, phenylephrine hydrochloride was administered. The procedure of administration of the test compound and administration of phenylephrine hydrochloride was repeated at an interval of about 30 minutes, and 3 to 5 doses of the test compound was evaluated (the test compound was administered at increasing doses). The data of reaction was introduced into a personal computer through PowerLab (registered trademark) (ADInstruments, Inc.), and analyzed with LabChart (registered trademark) (ADInstruments, Inc.). For the evaluation, the value of the area under the urethral pressure (mmHg·s) for one minute before and after administration of phenylephrine hydrochloride was determined to calculate the difference between before and after administration of phenylephrine hydrochloride (ΔAUC value). By taking the ΔAUC value obtained before administering the test compound as 100%, the ratio (reaction rate) of the ΔAUC value of the test compound at each dose was calculated. The rate at which the obtained reaction rate becomes 60% (40% as an inhibition rate) was defined as ID40, and the ID40 values of the test compounds were calculated by non-linear regression.

human MC3 receptor = human MC3 receptor (Homo sapiens (Human), UniProt P41968); test: Human MC receptor activation, cAMP production in cells expressing human MC3 receptor; format: cell-based; conditions: FreeStyle 293-F cells transiently expressing human MC3 receptor, α-MSH maximum = 100%
Sequence of human MC3 receptor (P41968 whole entry): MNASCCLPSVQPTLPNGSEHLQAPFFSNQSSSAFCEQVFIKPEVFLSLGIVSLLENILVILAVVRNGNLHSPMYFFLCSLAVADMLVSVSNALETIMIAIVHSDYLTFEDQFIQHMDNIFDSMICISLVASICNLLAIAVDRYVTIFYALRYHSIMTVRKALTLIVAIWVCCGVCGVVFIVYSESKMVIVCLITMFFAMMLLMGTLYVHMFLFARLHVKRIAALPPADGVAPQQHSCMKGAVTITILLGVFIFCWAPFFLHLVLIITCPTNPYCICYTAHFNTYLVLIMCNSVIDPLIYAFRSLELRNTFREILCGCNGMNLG
From the text: (§1) (1) Construction of Human MC Receptor-Expressing Vector
(§2) A human MC4 receptor gene (GenBank Accession No.: NM_005912.2), a human MC1 receptor gene (GenBank Accession No.: NM_002386.3), or a human MC3 receptor gene (GenBank Accession No.: NM_019888.3) was introduced into an expression vector pcDNA™ 3.1/V5-His TOPO (registered trademark) (Thermo Fisher Scientific Inc.).
(§3) (2) Construction of Cells Transiently Expressing Human MC Receptor
(§4) An expression vector for a human MC4, MC1, or MC3 receptor was introduced into FreeStyle™ 293-F cell (Thermo Fisher Scientific Inc., product number: R790-07). For the introduction, electroporation was employed. That is, 1×10^7 FreeStyle™ 293-F cell were suspended in 80 μL of an electroporation buffer (Thermo Fisher Scientific Inc., product number: B201-100), and 20 μg of the expression vector was added thereto. The resultant was put into a cuvette (OC-100 Processing Assembly, MaxCyte, Inc.) and electroporated with MaxCyte SIX (registered trademark) (MaxCyte, Inc.). The cells were cultured over one day, suspended in a Cell Banker (registered trademark) 1 (JUJI FIELD Inc.), product number: BLC-1), and stored frozen until their use.
(§5) (3) Measurement of Amount of cAMP Produced
(§6) Measurement was carried out by using a LANCE (registered trademark) Ultra cAMP Kit (PerkinElmer, Inc.) in accordance with the attached instructions. That is, after dissolution in DMSO, the test compound (a final concentration of 1 pM to 30 μM) diluted with an assay buffer (Hank's balanced salt solution, 5 mM 4-(2-hydroxyethyl)-1-piperazineethanesulfonic acid (HEPES), 0.5 mM 3-isobutyl-1-methylxanthine (IBMX), 0.1% bovine serum albumin, pH 7.4), or α-MSH (Bachem Inc., a final concentration of 1 pM to 30 μM) was added to OptiPlate-384 (PerkinElmer, Inc.). Furthermore, a suspension of cells transiently expressing the human MC4, MC1, or MC3 receptor prepared by using the assay buffer was added thereto at 1,000 cells/well, followed by being left to stand at room temperature for about 1 hour. Thereafter, an Eu-cAMP tracer solution and an ULight™-anti-cAMP solution were added thereto, followed by being left to stand at room temperature for about 1 hour. The amount of cAMP was calculated using EnVision (registered trademark) (PerkinElmer Inc.).
(§7) For the agonistic activity, an efficacy (EC50 (μM)) was calculated by a non-linear regression method with a Sigmoid-Emax model, by defining the maximum reaction with α-MSH as 100% and the reaction with the vehicle alone as 0%, respectively.

human MC1 receptor = human MC1 receptor (Homo sapiens (Human), UniProt Q01726); test: Human MC receptor activation, cAMP production in cells expressing human MC1 receptor; format: cell-based; conditions: FreeStyle 293-F cells transiently expressing human MC1 receptor, α-MSH maximum = 100%
Sequence of human MC1 receptor (Q01726 whole entry): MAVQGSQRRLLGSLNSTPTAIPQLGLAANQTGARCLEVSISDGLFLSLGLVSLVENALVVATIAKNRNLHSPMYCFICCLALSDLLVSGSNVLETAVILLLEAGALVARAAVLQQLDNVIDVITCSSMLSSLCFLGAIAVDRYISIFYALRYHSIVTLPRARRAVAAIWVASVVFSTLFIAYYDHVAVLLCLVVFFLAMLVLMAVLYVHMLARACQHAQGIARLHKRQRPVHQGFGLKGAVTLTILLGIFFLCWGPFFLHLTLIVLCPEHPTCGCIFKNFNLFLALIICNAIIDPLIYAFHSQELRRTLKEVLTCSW
From the text: as §1, §2, §3, §4, §5, §6, §7

| SMILES | ED40 (Male Wistar rats) | EC50 (human MC3 receptor) | EC50 (human MC1 receptor) |
| --- | --- | --- | --- |
| Cc1cc(C)c(C[C@@H](C(=O)O)N2CCN(C(=O)[C@@H]3CN(C4CCOCC4)C[C@H]3c3ccc(Cl)cc3F)[C@@H](C)C2)c(F)c1 [Example 88] | 0.04 mg/kg | 0.88 µM | 2.7 µM |
| Cc1cc(F)c(C[C@@H](C(=O)O)N2CCN(C(=O)[C@@H]3CN(C(C)(C)C)C[C@H]3c3ccc(Cl)cc3F)[C@@H](C)C2)c(F)c1 [Example 76] | 0.0047 mg/kg | 0.33 µM | 0.1 µM |
| Cc1ccc(C[C@@H](C(=O)O)N2CCN(C(=O)[C@@H]3CN(C(C)(C)C)C[C@H]3c3ccc(Cl)cc3F)[C@@H](C)C2)cc1 [Example 11] | 0.088 mg/kg | 3.7 µM | 0.86 µM |
| Cc1ccc(C[C@@H](C(=O)O)N2CCN(C(=O)[C@@H]3CN(C(C)(C)C)C[C@H]3c3ccc(Cl)cc3F)[C@@H](C)C2)c(F)c1 [Example 4, (2S)-2-[(3S)-4-{[(3S,4R)-1-tert-butyl-4-(4-chloro-2-fluorophenyl)pyrrolidin-3-yl]carbonyl}-3-methylpiperazin-1-yl]-3-(2-fluoro-4-methylphenyl)propanoic acid dihydrochloride] | 0.0094 mg/kg | 0.18 µM | 0.07 µM |
| C[C@H]1CN([C@@H](Cc2ccc3c(c2)CCC3)C(=O)O)CCN1C(=O)[C@@H]1CN(C(C)(C)C)C[C@H]1c1ccc(F)cc1F [Example 5, (2S)-2-[(3S)-4-{[(3S,4R)-1-tert-butyl-4-(2,4-difluorophenyl)pyrrolidin-3-yl]carbonyl}-3-methylpiperazin-1-yl]-3-(2,3-dihydro-1H-inden-5-yl)propanoic acid dihydrochloride] | 0.13 mg/kg | 4.2 µM | 1.3 µM |
| Cc1cc(C)c(C[C@@H](C(=O)O)N2CCN(C(=O)[C@@H]3CN(C(C)(C)C)C[C@H]3c3ccc(Cl)cc3F)[C@@H](C)C2)c(C)c1 [Example 89] | 0.024 mg/kg | 0.78 µM | 1.3 µM |
| Cc1ccc(C[C@@H](C(=O)O)N2CCN(C(=O)[C@@H]3CN(C4CCOCC4)C[C@H]3c3ccc(Cl)cc3F)[C@@H](C)C2)c(F)c1 [Example 87, (2S)-2-[(3S)-4-{[(3S,4R)-4-(4-chloro-2-fluorophenyl)-1-(tetrahydro-2H-pyran-4-yl)pyrrolidin-3-yl]carbonyl}-3-methylpiperazin-1-yl]-3-(2-fluoro-4-methylphenyl)propanoic acid dihydrochloride] | 0.04 mg/kg | 0.92 µM | 1.1 µM |
| CCC[C@H]1CN([C@@H](Cc2ccc3ccccc3c2)C(=O)O)CCN1C(=O)[C@@H]1CN(C(C)(C)C)C[C@H]1c1ccc(F)cc1F [Example 9] | 0.047 mg/kg | 0.91 µM | 0.39 µM |
